Assay results taken from US12295396B2, “Antagonists of T2R54 and compositions and uses thereof” (Firmenich Incorporated, priority 2018, dated 2025).

These compounds were tested against T1, hT2R54 (Homo sapiens, UniProt P59534) (assay: Cell-based assay for measuring hT2R54 inhibition (FLIPR calcium, Fluo4AM, acetaminophen as bitter agonist)). Details: Table 2; cells stably expressing hT2R54 and a promiscuous G protein; read-out: hT2R54 IC50.
T1 construct: expressed in transfected cells; it overexpresses a promiscuous G protein
T1 sequence (P59534 1-338): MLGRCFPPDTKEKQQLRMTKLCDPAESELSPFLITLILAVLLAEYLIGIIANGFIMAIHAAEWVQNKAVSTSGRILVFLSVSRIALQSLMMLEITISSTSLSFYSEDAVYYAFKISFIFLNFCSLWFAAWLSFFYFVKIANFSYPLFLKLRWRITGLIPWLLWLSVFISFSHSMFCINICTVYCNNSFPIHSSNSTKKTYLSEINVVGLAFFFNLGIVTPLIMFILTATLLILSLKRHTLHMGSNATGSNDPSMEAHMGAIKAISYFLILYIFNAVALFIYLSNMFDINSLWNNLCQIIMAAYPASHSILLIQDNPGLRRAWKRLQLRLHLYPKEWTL
Outline: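 Cells stably co-expressing hT2R54 and a promiscuous G protein were loaded with Fluo4AM and given acetaminophen dose series, alone or with fixed concentrations of test compound. On FLIPR, baseline was recorded for 10 s and fluorescence for 3 min after addition. IC50 is the concentration halving the acetaminophen-alone response.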
`COCc1ccc(C(=O)N2CCN(CC(=O)Nc3cc4c(cc3C(C)=O)OCO4)CC2)cc1` [compound 282] showed an IC50 of 38 nM. In the case of `COCc1cccc(C(=O)N2CCN(CC(=O)Nc3cc4c(cc3C(C)=O)OCO4)CC2)n1` [compound 283], the IC50 is reported as 125 nM. `CC(=O)c1cc2c(cc1NC(=O)CN1CCN(C(=O)c3csnn3)CC1)OCO2` [compound 284] showed an IC50 of 30 nM. Work on `CC(=O)c1cc2c(cc1NC(=O)CN1CCN(C(=O)c3cscn3)CC1)OCO2` [compound 285] yielded an IC50 of 34 nM. For `CC(=O)c1cc2c(cc1NC(=O)CN1CCN(C(=O)c3cocn3)CC1)OCO2` [compound 286], the IC50 was 108 nM. Compound `CC(=O)c1cc2c(cc1NC(=O)CN1CCN(C(=O)c3ccc(CO)o3)CC1)OCO2` [compound 287] has an IC50 of 230 nM. In the case of `COCc1ccc(C(=O)N2CCN(CC(=O)Nc3cc4c(cc3C(C)=O)OCO4)CC2)o1` [compound 288], the IC50 is reported as 65 nM.

Same assay, conditions: Table 8; read-out: hT2R54 IC50
`COc1ccccc1CC(=O)N1CCC(CC(=O)Nc2cc3c(cc2C(C)=O)OCO3)CC1` [compound 255] gave an IC50 of 1300 nM. `COc1cccc(CC(=O)N2CCC(CC(=O)Nc3cc4c(cc3C(C)=O)OCO4)CC2)c1` [compound 256] was tested, and the IC50 was 380 nM. `COc1ccc(CC(=O)N2CCC(CC(=O)Nc3cc4c(cc3C(C)=O)OCO4)CC2)cc1` [compound 257] showed an IC50 of 1570 nM. `CC(=O)c1cc2c(cc1NC(=O)CC1CCN(C(C)=O)C1)OCO2` (stereo not shown) [compound 258] showed an IC50 of 928 nM. Compound `CCC(=O)N1CCC(CC(=O)Nc2cc3c(cc2C(C)=O)OCO3)C1` (stereo not shown) [compound 259] has an IC50 of 2600 nM. Compound `CCCC(=O)N1CCC(CC(=O)Nc2cc3c(cc2C(C)=O)OCO3)C1` (stereo not shown) [compound 260] has an IC50 of 844 nM. Compound `CC(=O)c1cc2c(cc1NC(=O)CC1CCN(C(=O)C(C)C)C1)OCO2` (stereo not shown) [compound 261] has an IC50 of 958 nM. In the case of `CC(=O)c1cc2c(cc1NC(=O)CC1CCN(C(=O)C(C)(C)C)C1)OCO2` (stereo not shown) [compound 262], the IC50 is reported as 290 nM. `CC(=O)c1cc2c(cc1NC(=O)CC1CCN(C(=O)CC(C)C)C1)OCO2` (stereo not shown) [compound 263] was tested, and the IC50 was 374 nM. `CC(=O)c1cc2c(cc1NC(=O)CC1CCN(C(=O)CC(C)(C)C)C1)OCO2` (stereo not shown) [compound 264] was tested, and the IC50 was 381 nM. `CC(=O)c1cc2c(cc1NC(=O)CC1CCN(C(=O)C3CC3)C1)OCO2` (stereo not shown) [compound 265] was tested, and the IC50 was 682 nM. For `CC(=O)c1cc2c(cc1NC(=O)CC1CCN(C(=O)C3CCCC3)C1)OCO2` (stereo not shown) [compound 266], the IC50 was 506 nM. Compound `CC(=O)c1cc2c(cc1NC(=O)CC1CCN(C(=O)C3CCCCC3)C1)OCO2` (stereo not shown) [compound 267] has an IC50 of 2250 nM. `CCOC(=O)N1CCC(CC(=O)Nc2cc3c(cc2C(C)=O)OCO3)C1` (stereo not shown) [compound 268] showed an IC50 of 117 nM. `CCCOC(=O)N1CCC(CC(=O)Nc2cc3c(cc2C(C)=O)OCO3)C1` (stereo not shown) [compound 269] gave an IC50 of 103 nM.

Same assay, conditions: Table 9; read-out: hT2R54 IC50
`CC(=O)c1cc2c(cc1NC(=O)CC1CCOCC1)OCO2` [compound 270, N-(6-Acetylbenzo[d][1,3]dioxol-5-yl)-2-(tetrahydro-2H-pyran-4-yl)acetamide] gave an IC50 of 561 nM. In the case of `CC(=O)c1cc2c(cc1NC(=O)CC1CCCCO1)OCO2` (stereo not shown) [compound 271], the IC50 is reported as 152 nM. Compound `CC(=O)c1cc2c(cc1NC(=O)CC1CCOC1)OCO2` (stereo not shown) [compound 272] has an IC50 of 1390 nM. With `CC(=O)c1cc2c(cc1NC(=O)Cc1cccnc1)OCO2` [compound 273] the IC50 was 454 nM. Compound `CC(=O)c1cc2c(cc1NC(=O)Cc1ccc(O)cc1)OCO2` [compound 274] has an IC50 of 554 nM. `CC(=O)c1cc2c(cc1NC(=O)Cc1ccsc1)OCO2` [compound 275] showed an IC50 of 704 nM. For `COc1ccccc1CC(=O)Nc1cc2c(cc1C(C)=O)OCO2` [compound 276], the IC50 was 804 nM. `CC(=O)c1cc2c(cc1NC(=O)Cc1ccccc1C)OCO2` [compound 277] gave an IC50 of 740 nM. `CC(=O)c1cc2c(cc1NC(=O)CCc1ccccc1)OCO2` [compound 278] showed an IC50 of 1220 nM. With `COc1ccc(OC)c(CC(=O)Nc2cc3c(cc2C(C)=O)OCO3)c1` [compound 279] the IC50 was 1470 nM. In the case of `CC(=O)c1cc2c(cc1NC(=O)Cc1c(C)nn(C)c1C)OCO2` [compound 280], the IC50 is reported as 1720 nM. Compound `COc1cccc(CC(=O)Nc2cc3c(cc2C(C)=O)OCO3)c1` [compound 281] has an IC50 of 1810 nM.
